18 compounds from US10300071B2, “Compositions and methods for inhibition of mycobacteria” (priority 2014, dated 2019) can be followed below.

pIC50: −log10 of the molar value.

The target in one assay is Mtb AccD6 (Mycobacterium tuberculosis, UniProt P9WQH5). Briefly: biochemical. The format is biochemical. Conditions: 20 uM.
Chain of Mtb AccD6 (P9WQH5 whole entry, looked up): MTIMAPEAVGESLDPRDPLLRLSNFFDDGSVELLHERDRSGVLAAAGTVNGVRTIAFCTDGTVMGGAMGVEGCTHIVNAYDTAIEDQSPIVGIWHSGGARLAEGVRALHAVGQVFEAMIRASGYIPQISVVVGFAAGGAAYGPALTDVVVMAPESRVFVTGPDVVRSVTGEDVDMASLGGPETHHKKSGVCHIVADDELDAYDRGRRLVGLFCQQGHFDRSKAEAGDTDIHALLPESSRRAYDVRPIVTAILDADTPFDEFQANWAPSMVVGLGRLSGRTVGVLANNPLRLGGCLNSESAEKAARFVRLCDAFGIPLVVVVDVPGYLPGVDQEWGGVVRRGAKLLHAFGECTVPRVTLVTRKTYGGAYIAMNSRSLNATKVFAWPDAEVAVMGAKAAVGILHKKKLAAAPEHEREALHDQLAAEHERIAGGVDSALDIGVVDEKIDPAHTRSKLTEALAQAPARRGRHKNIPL
As for `CONC(=O)CN1CCC(Oc2nc3ccc(Cl)cc3s2)CC1` [WUXI-N4, 2-{4-[(6-chloro-1,3-benzothiazol-2-yl)oxy]piperidin-1-yl}-N-methoxyacetamide], the inhibition – broadly, how much of the control response was suppressed – at 20 uM is “No inhibition at 20 uM”.

For the compound `CONC(=O)CCN1CCC(Oc2nc3ccc(Cl)cc3s2)CC1` [WUXI-N5, 3-{4-[(6-chloro-1,3-benzothiazol-2-yl)oxy]piperidin-1-yl}-N-methoxypropanamide], the “inhibition at 20 uM” value is listed as “No inhibition at 20 uM”.

Still in this assay, the particulars now being: 20 uM, pH 8.0; read-out: inhibition at 20 uM- pH 8.0.
Take `CC(C)NC(=O)Nc1ccc(Oc2nc3ccc(Cl)cc3s2)nc1` [WuXi-N6, 1-{6-[(6-chloro-1,3-benzothiazol-2-yl)oxy]pyridin-3-yl}-3-(propan-2-yl)urea]: the inhibition at 20 µM was found to be 11%.

Staying with this assay, now noted: 20 uM, pH 8.5; read-out: inhibition at 20 uM- pH 8.5.
As for `CC(C)NC(=O)Nc1ccc(Oc2nc3ccc(Cl)cc3s2)nc1` [WuXi-N6, 1-{6-[(6-chloro-1,3-benzothiazol-2-yl)oxy]pyridin-3-yl}-3-(propan-2-yl)urea], the inhibition at 20 µM stood at 17%.

Still in this assay, the particulars now being: 300 μM malonyl-CoA, inhibitor 10 μM to 2000 μM; read-out: IC50.
In the case of `C[C@@H](Oc1ccc(Oc2nc3ccc(Cl)cc3s2)cc1)C(=O)O` [NZ-247, (2R)-2-{4-[(6-chloro-1,3-benzothiazol-2-yl)oxy]phenoxy}propanoic acid], the negative logarithm of the IC50 (pIC50) (as a rule, −log10 of the IC50, conventionally taken in molar units) was 5.60.

Take `C[C@@H](Oc1ccc(Oc2nc3ccc(Br)cc3s2)cc1)C(=O)O` [NZ-253, (2R)-2-{4-[(6-bromo-1,3-benzothiazol-2-yl)oxy]phenoxy}propanoic acid]: the pIC50 is under 4.82.

For `C[C@@H](Oc1ccc(Oc2nc3ccccc3s2)cc1)C(=O)O` [NZ-254, (2R)-2-[4-(1,3-benzothiazol-2-yloxy)phenoxy]propanoic acid], the pIC50 is under 4.82.

Consider `C[C@@H](Oc1ccc(Oc2nc3ccc(F)cc3s2)cc1)C(=O)O` [NZ-255, (2R)-2-{4-[(6-fluoro-1,3-benzothiazol-2-yl)oxy]phenoxy}propanoic acid], for which the pIC50 was 5.92.

`O=C(O)COc1ccc(Oc2cnc3cc(Cl)ccc3n2)cc1` [NZ-257, 2-{4-[(6-chloroquinoxalin-2-yl)oxy]phenoxy}acetic acid]: the pIC50 is 5.72 to 5.82.

As to `C[C@@H](Oc1ccc(Oc2nc3ccc([N+](=O)[O-])cc3s2)cc1)C(=O)O` [NZ-261, (2R)-2-{4-[(6-nitro-1,3-benzothiazol-2-yl)oxy]phenoxy}propanoic acid], the negative-log IC50 (pIC50) was 5.74.

Turning to `CN1CCN(C(=O)Cc2ccc(Oc3nc4cc(F)c(F)cc4s3)cc2)CC1` [NZ-409, 2-{4-[(5,6-difluoro-1,3-benzothiazol-2-yl)oxy]phenyl}-1-(4-methylpiperazin-1-yl)ethan-1-one], the pIC50 is 6.18.

For `CNC(=O)Cc1ccc(Oc2nc3ccc(F)cc3s2)cc1F` [NZ-410, 2-{2-fluoro-4-[(6-fluoro-1,3-benzothiazol-2-yl)oxy]phenyl}-N-methylacetamide], the pIC50 was 6.42.

As to `CNC(=O)Cc1ccc(Oc2nc3cc(F)c(F)cc3s2)cc1F` [NZ-411, 2-{4-[(5,6-difluoro-1,3-benzothiazol-2-yl)oxy]-2-fluorophenyl}-N-methylacetamide], the pIC50 was 6.62.

As for `Nc1ccc(Oc2nc3ccc(F)cc3s2)cc1` [NZ-413, 4-[(6-fluoro-1,3-benzothiazol-2-yl)oxy]aniline], the pIC50 was 4.85.

`CC(C)(C)OC(=O)NCC(=O)Nc1ccc(Oc2nc3ccc(F)cc3s2)cc1` [NZ-415, tert-butyl N-[({4-[(6-fluoro-1,3-benzothiazol-2-yl)oxy]phenyl}carbamoyl)methyl]carbamate]: the negative-log IC50 (pIC50) is 4.70.

Still in this assay, the particulars now being: read-out: inhibition at 20 uM.
As for `CC(C)(C)OC(=O)Nc1ccc(Oc2nc3ccc(F)cc3s2)cc1` [NZ-412, terl-butyl N-{4-[(6-fluoro-1,3-benzothiazol-2-yl)oxy]phenyl}carbamate], the inhibition at 20 µM came out at 17%.

As to `NCCC(=O)Nc1ccc(Oc2nc3ccc(F)cc3s2)cc1` [NZ-416, 3-amino-N-{4-[(6-fluoro-1,3-benzothiazol-2-yl)oxy]phenyl}propanamide], the inhibition at 20 µM is 20%.

Turning to `NCC(=O)Nc1ccc(Oc2nc3ccc(F)cc3s2)cc1` [NZ-417, 2-amino-N-{4-[(6-fluoro-1,3-benzothiazol-2-yl)oxy]phenyl}acetamide], the inhibition at 20 µM is 10%.

Turning to `CC(C)NC(=O)Nc1ccc(Oc2nc3ccc(Cl)cc3s2)nn1` [WuXi-N7, 1-{6-[(6-chloro-1,3-benzothiazol-2-yl)oxy]pyridazin-3-yl}-3-(propan-2-yl)urea], the inhibition at 20 µM came out at 18%.
